Values joined by “and” are separate entries in the source; they are usually repeats but may differ in a detail not shown here. Equal values may be shown once. Read-outs that look alike come from different tables or passages of the source.
Tests used:
human plasma [1] = experiment: Ultracentrifugation (UC) plasma protein binding assay, fraction unbound in plasma (fup)
human plasma [2] = experiment: Chemical stability in plasma over the UC assay time course (T5hr/T1hr)
[3] = tested on: pooled human cryopreserved primary hepatocyte suspensions; experiment: Hepatic metabolic stability (hepatocyte clearance) assay, substrate depletion; format: in vitro ADME; details: for Linear Regression Results, Best-Fit Values, Slope: hepatocyte time course
Method in brief: (§1)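 Substrate depletion of 1 μM compound, 37 °C, with pooled human hepatocytes (50-donor, 50,000 cells/100 μL) in William's E; samples quenched in acetonitrile up to 240 min, triplicate time points. Intrinsic clearance (μL/min/million hepatocytes) and half-life derived from semi-log slope, background-adjusted using media-only and inactivated-cell controls; compounds with ≥50% abiotic loss at T120 excluded.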

[4] = as above; format: in vitro ADME, human; details: both sexes, human, hepatocytes
Method in brief: as §1

[5] = Abiotic loss in negative controls of the hepatocyte clearance assay (cell-free media, metabolically inactivated hepatocytes); format: in vitro ADME
Method in brief: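 Abiotic stability was checked with media-only and inactivated-hepatocyte controls, run at T0 and T240 or, on rerun, at more time points. Compound at 1 μM, 37 °C, acetonitrile quench. Loss rates served for background subtraction, and ≥50% loss by T120 meant exclusion.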

[6] = In vitro-in vivo extrapolation (IVIVE) to Css and administered equivalent dose (AED); parameters: species or system human; details: for Clhep: IVIVE, hepatocyte Clint scaled to whole-liver clearance; for AED: administered equivalent dose from LOEC and Css; for Fub: fub=fup/(B:P), Fub set to 1 if needed; for CLint: scaled with HPGL 110 mill cells/g, Vl 1596 g
Protocol: Using the experimentally generated PPB (fraction unbound in plasma, fup) and hepatic Clint data, IVIVE was performed as previously described to calculate human steady-state plasma concentrations (Css). Briefly, experimental measures of fup are adjusted using blood:plasma partitioning information to estimate the fraction unbound in blood (fub). Experimental hepatocyte Clint data are scaled up to represent whole-liver clearance (L/h). […] Once estimated, these Css values are considered in conjunction with published in vitro bioactivity concentrations (i.e., lowest-observed effective concentrations, or LOECs) to calculate AEDs (Table 2). See Table S10 for all relevant IVIVE inputs, scalars, calculations, and outputs.

human primary cells = details: cited from earlier work
in vitro = details: both, human, plasma
human plasma [7] = details: both, human, 5 h, 10 μM
human plasma [8] = tested on: human plasma
[9] = hepatocyte incubation, Rep 1-3, start conc 1000 nM
[10] = heat treated hepatocytes control, 0 vs 240 min
[11] = heat treated hepatocytes, Rep 1-3
[12] = Assuming 1 mg/kg/day dose rate, BW 70 kg
[13] = human steady-state plasma concentration, assuming 1 mg/kg/day dosage
[14] = BioSeek lowest-observed effect concentration used for AED
[15] = minimum lowest-observed effect concentration, BioSeek platform

SMILES: NC(=O)C(F)(F)C(F)(F)C(F)(F)C(F)(F)C(N)=O [Octafluoroadipamide]
- fup (human plasma [1]; human plasma, 10 μM, ultracentrifugation, 37 °C): 0.8201
- Fup.Med (human plasma [1]; median fraction unbound in plasma, UC assay Level4): 0.864
- Fup.point (human plasma [1]; point estimate of fraction unbound in plasma, UC assay Level4): 0.834
- PPB_Stab_Fail (human plasma [2]; flag for stability failure in the plasma protein binding assay (1 = fail, 0 = pass)): 0
- Mean Stability (T5hr/T1hr) (human plasma [2]; mean over all UC runs and replicates, human plasma): 0.977
- Fstable.Med (human plasma [2]; median fraction stable in plasma, UC assay Level4): 0.546
- Stability (T5hr/ T1hr), Run-specific Avg (human plasma [2]; run-specific average): 0.982
- Concentration (nM), Time 0 min [3, 9]: 263.339 nM and 217.701 nM and 209.817 nM
- Concentration (nM), Time 15 min [3, 9]: 291.912 nM and 225.036 nM and 414.445 nM
- Concentration (nM), Time 30 min [3, 9]: 391.931 nM and 314.083 nM and 336.529 nM
- Concentration (nM), Time 60 min [3, 9]: 437.175 nM and 457.948 nM and 302.199 nM
- Concentration (nM), Time 120 min [3, 9]: 293.394 nM and 338.799 nM and 278.045 nM
- Linear Regression Results, Best-Fit Values, Slope [3]: -0.002646
- hepatocyte CLint at 1 μM ([4]; background-subtracted, read-out: Bkgd-Sub Clearance (µL/min/106 hepatocytes)): 2.95 µL/min/1e6 cells
- hepatocyte CLint at 1 μM ([4]; pooled human hepatocyte suspensions, 1 μM, read-out: In Vitro Clint): 2.95 µL/min/1e6 cells
- hepatocyte CLint at 1 μM ([4]; unadjusted hepatocyte intrinsic clearance, read-out: Unadj in vitro Clint): 5.29 µL/min/1e6 cells
- hepatocyte CLint at 1 μM ([4]; hepatocyte time course, NS = slope not significant, read-out: Linear Regression Results, Best-Fit Values, Clearance): 5.29 µL/min/1e6 cells
- half-life at 1 μM ([4]; hepatocyte time course, NS = slope not significant, read-out: Linear Regression Results, Best-Fit Values, Half Life): 4.37 h
- half-life at 1 μM ([5]; both sexes, human, heat treated hepatocytes control, 0 vs 240 min, read-out: HT BkgdCl, Half Life): 7.63 h
- half-life at 1 μM ([5]; buffer, no cells control, 0 vs 240 min, read-out: No Cells BkgdCl, Half Life): 9.88 h
- Hep_Stab_Fail ([5]; flag for stability failure in hepatocyte clearance assay controls (1 or Fst = fail, 0 = pass)): 0
- HT BkgdCl, Slope [5, 10]: -0.001514
- Negative Controls, Heat Treated (HT), concentration at 0 min [5, 11]: 209.171 nM and 207.599 nM and 206.567 nM
- Negative Controls, Heat Treated (HT), concentration at 240 min [5, 11]: 153.885 nM and 136.838 nM and 143.186 nM
- No Cells BkgdCl, Slope ([5]; no cells control, 0 vs 240 min): -0.00117
- Negative Controls, No cells (NC), concentration at 0 min ([5]; no cells, Rep 1-3): 214.709 nM and 240.687 nM and 228.618 nM
- Negative Controls, No cells (NC), concentration at 240 min ([5]; no cells, Rep 1-3): 175.164 nM and 151.709 nM and 191.604 nM
- Css [6, 12]: 0.10 mg/L and 0.34 uM
- Clhep [6]: 23.099 L/h
- AED [6]: 5.8401 mg/kg/day
- Fub [6]: 1
- Css [6, 13]: 0.34 µM
- CLint [6]: 517902 µL/min
- LOEC (human primary cells; [14]): 2.00 µM
- LOEC (human primary cells; [15]): 2 µM
- fraction unbound (in vitro; Fraction Unbound (fu), Run-specific Avg, run-specific average): 0.67
- fraction unbound (in vitro; Fraction Unbound (fu), replicate A, individual replicate A of the UC run dated in c8): 0.704
- fraction unbound (in vitro; Fraction Unbound (fu), replicate B, individual replicate B of the UC run dated in c8): 0.633
- fraction unbound (in vitro; Fraction Unbound (fu), replicate C, individual replicate C of the UC run dated in c8): 0.732
- fraction unbound (in vitro; Mean Fu (fraction unbound), mean over all UC runs and replicates, human plasma): 0.82
- fraction unbound (in vitro; Mean fu, fraction unbound in human plasma, ultracentrifugation, some values based on eLOQ): 0.82

SMILES: NC(=O)C(F)(F)C(F)(F)F [Pentafluoropropionamide]
- Concentration (nM), Time 120 min ([3]; both, human, 120 min, 1 μM): 809.577 nM
- In Vitro Clint ([3]; both, human, hepatocytes, 1 μM): 0.00 μL/min/10^6 cells
- in vitro CLint ([3]; both, human, hepatocytes, 1 μM): 0 mL/min/106 cells
- Linear Regression Results, Best-Fit Values, Slope [3]: -0.00227
- Bkgd-Sub Clearance (µL/min/106 hepatocytes) ([3]; human, hepatocytes): 0.00 µL/min/106 hepatocytes
- Bkgd_adj_Clint ([3]; human, hepatocytes): 0.00
- Unadj Clint ([3]; human, hepatocytes): 0.00
- Unadj in vitro Clint ([3]; human, hepatocytes): 0.00
- clearance rate in hepatocytes ([3]; human, hepatocytes): no clearance
- Clint.1.Med ([3]; human, s9): 0
- Fup.Med (human plasma [7]): 0.754
- Fup.point (human plasma [7]): 0.789
- No Cells BkgdCl, Clearance ([5]; 1 μM): 7.66
- half-life at 1 μM ([5]; both sexes, human, hepatocytes): 3.65 h
- HT BkgdCl, Clearance ([5]; both, human, 1 μM): 6.324
- Hep_Stab_Fail ([5]; both, human, 120 min, 1 μM): 0
- half-life at 1 μM ([5]; buffer): 3.02 h
- HT BkgdCl, Slope [5, 10]: -0.003162
- No Cells BkgdCl, Slope ([5]; no cells control, 0 vs 240 min): -0.00383
- Css [6, 12]: 0.44 mg/L and 2.69 uM
- Clhep [6]: 0.000 L/h
- AED [6]: 7.4314 mg/kg/day
- Fub [6]: 1
- Css [6, 13]: 2.69 µM
- Css ([6]; human steady-state plasma concentration, assuming 1 mg/kg/day dosage, listed as pentafluoropropionamide): 2.1 to 2.7 µM
- CLint [6]: 0 µL/min
- Unstable (human plasma [8]): Y
- Fstable.Med (human plasma [8]; both, human, 5 h, 10 μM): 0.19
- Mean Stability (human plasma [8]; both, human, 5 h, 10 μM): 0.711
- Stability (T5hr/ T1hr), Run-specific Avg (human plasma [8]; both, human, 5 h, 10 μM): 0.719
- PPB_Stab_Fail (human plasma [8]; both, human, plasma, 5 h, 10 μM): 0
- LOEC (human primary cells; [14]): 20.00 µM
- LOEC (human primary cells; [15]): 20 µM
- fraction unbound at 5 h, 10 μM (in vitro; Fraction Unbound (fu), Run-specific Avg): 0.81
- fraction unbound at 5 h, 10 μM (in vitro; Fraction Unbound (fu), replicates A, B, C): 0.788
- fraction unbound at 5 h, 10 μM (in vitro; Mean Fu): 0.809
- fraction unbound at 5 h, 10 μM (in vitro; Mean fu): 0.809
